Measurements: ChEMBL document CHEMBL1671616, “Bloodstream infections caused by extended-spectrum-beta-lactamase- producing Escherichia coli: risk factors for inadequate initial antimicrobial therapy” (2008)

Experiments:
Assay type in all cases: functional
Escherichia coli [1] = test: Antimicrobial activity against ESBL producing Escherichia coli isolated from patient bloodstream assessed as resistant isolate by Etest method
Escherichia coli [2] = test: Antimicrobial activity against ESBL producing Escherichia coli isolated from patient bloodstream assessed as resistant isolate by Etest method in presence of Tazobactam
Escherichia coli [3] = test: Antimicrobial activity against ESBL producing Escherichia coli isolated from patient bloodstream assessed as resistant isolate by Etest method in presence of clavulanic acid

Compound | Activity (Escherichia coli [1]) [%] | also measured
C[C@@H](O)[C@H]1C(=O)N2C(C(=O)O)=C(SCCNC=N)C[C@H]12 [IMIPENEM ANHYDROUS] | 0 | 
C[C@@H](O)[C@H]1C(=O)N2C(C(=O)O)=C(S[C@@H]3CN[C@H](C(=O)N(C)C)C3)[C@H](C)[C@H]12 [MEROPENEM] | 0 | 
NCC[C@H](O)C(=O)N[C@@H]1C[C@H](N)[C@@H](O[C@H]2O[C@H](CN)[C@@H](O)[C@H](O)[C@H]2O)[C@H](O)[C@H]1O[C@H]1O[C@H](CO)[C@@H](O)[C@H](N)[C@H]1O [AMIKACIN] | 0 | 
GENTAMICIN | 33.3 | 
O=C(O)c1cn(C2CC2)c2cc(N3CCNCC3)c(F)cc2c1=O [CIPROFLOXACIN] | 92.2 | 
C[C@]1(Cn2ccnn2)[C@H](C(=O)O)N2C(=O)C[C@H]2S1(=O)=O [TAZOBACTAM] |  | Activity (Escherichia coli [2]): 15.5%
C[C@H]1COc2c(N3CCN(C)CC3)c(F)cc3c(=O)c(C(=O)O)cn1c23.C[C@H]1COc2c(N3CCN(C)CC3)c(F)cc3c(=O)c(C(=O)O)cn1c23.O [LEVOFLOXACIN] | 92.2 | 
CC1(C)S[C@@H]2[C@H](NC(=O)[C@H](N)c3ccc(O)cc3)C(=O)N2[C@H]1C(=O)O [AMOXICILLIN] |  | Activity (Escherichia coli [3]): 30.2%
